ChEMBL document CHEMBL1154025, “Design and synthesis of BACE-1 inhibitors utilizing a tertiary hydroxyl motif as the transition state mimic” (Bioorg Med Chem Lett, 2009)

What was measured:
Beta-secretase 1 = Beta-secretase 1 (Homo sapiens, UniProt P56817); experiment: Inhibition of human BACE1 expressed in Escherichia coli BL21(DE3) using Swedish mutant sequence Eu-EVNLDAEFK-Quencher substrate by homogeneous time resolved fluorescence assay
[1] = Permeability across human Caco-2 cell membrane; type: ADME, cell-based
Cathepsin D = Cathepsin D (Homo sapiens, UniProt P07339); experiment: Inhibition of human liver cathepsin D
Sequence of Cathepsin D (P07339 65-162 limits assumed): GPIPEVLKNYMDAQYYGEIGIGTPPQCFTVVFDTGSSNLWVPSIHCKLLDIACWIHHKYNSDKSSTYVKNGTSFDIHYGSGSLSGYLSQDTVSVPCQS
Sequence of Cathepsin D (P07339 169-412 limits assumed): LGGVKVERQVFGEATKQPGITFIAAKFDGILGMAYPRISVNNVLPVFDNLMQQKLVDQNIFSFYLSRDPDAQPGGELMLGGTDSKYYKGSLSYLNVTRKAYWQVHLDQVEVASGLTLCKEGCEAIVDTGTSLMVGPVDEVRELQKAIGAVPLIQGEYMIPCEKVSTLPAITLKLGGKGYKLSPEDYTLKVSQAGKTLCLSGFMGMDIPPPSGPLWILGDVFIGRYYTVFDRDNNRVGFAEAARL

Sequence of Beta-secretase 1 (P56817 whole entry): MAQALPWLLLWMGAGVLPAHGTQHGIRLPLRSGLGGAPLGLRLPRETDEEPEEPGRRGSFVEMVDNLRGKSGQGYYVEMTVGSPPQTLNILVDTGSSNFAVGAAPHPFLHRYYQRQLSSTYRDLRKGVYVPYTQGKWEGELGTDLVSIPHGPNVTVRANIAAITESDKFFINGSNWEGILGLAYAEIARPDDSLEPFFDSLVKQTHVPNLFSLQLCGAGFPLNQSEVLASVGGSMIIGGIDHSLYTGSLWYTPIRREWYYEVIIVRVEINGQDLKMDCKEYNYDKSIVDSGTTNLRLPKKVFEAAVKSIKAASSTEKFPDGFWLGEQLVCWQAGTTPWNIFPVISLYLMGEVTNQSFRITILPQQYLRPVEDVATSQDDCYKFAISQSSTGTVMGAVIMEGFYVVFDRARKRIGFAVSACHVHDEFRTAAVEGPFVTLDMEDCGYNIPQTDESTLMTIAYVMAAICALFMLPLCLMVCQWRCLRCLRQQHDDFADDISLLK

| Structure (SMILES) | IC50 (Beta-secretase 1) [µM] | Papp [1] [nm/s] | Ki (Cathepsin D) [µM] |
| --- | --- | --- | --- |
| C[C@@H](NC(=O)c1cc(NC(=O)CC[C@](O)(Cc2ccccc2)C(=O)N[C@H]2c3ccccc3C[C@H]2O)cc(N(C)S(C)(=O)=O)c1)c1ccccc1 | 2.5 |  |  |
| C[C@@H](NC(=O)c1cc(NC(=O)CC[C@@](O)(Cc2ccccc2)C(=O)N[C@H]2c3ccccc3C[C@H]2O)cc(N(C)S(C)(=O)=O)c1)c1ccccc1 | 4.6 |  |  |
| CC(C)[C@H](NC(=O)C(O)(CCC(=O)Nc1cc(C(=O)N[C@H](C)c2ccccc2)cc(N(C)S(C)(=O)=O)c1)CCc1ccccc1)C(=O)NCc1ccccc1 (some centres undefined) | 0.45 |  |  |
| CC(C)[C@H](NC(=O)CCC(O)(CCc1ccccc1)C(=O)Nc1cc(C(=O)N[C@H](C)c2ccccc2)cc(N(C)S(C)(=O)=O)c1)C(=O)NCc1ccccc1 (some centres undefined) | 5.6 |  |  |
| C[C@@H](NC(=O)c1cc(NC(=O)C(O)(CCC(=O)N[C@H]2c3ccccc3C[C@H]2O)Cc2ccccc2)cc(N(C)S(C)(=O)=O)c1)c1ccc(F)cc1 (some centres undefined) | > 10 |  |  |
| CC(C)[C@H](NC(=O)C(O)(CCC(=O)Nc1cc(C(=O)N[C@H](C)c2ccccc2)cc(N(C)S(C)(=O)=O)c1)CCc1ccccc1)C(=O)Nc1ccccc1 (single isomer, unassigned) | 0.32 |  |  |
| C[C@@H](NC(=O)c1cc(NC(=O)CCC(O)(CCc2ccccc2)C(=O)N[C@H]2c3ccccc3C[C@H]2O)cc(N(C)S(C)(=O)=O)c1)c1ccccc1 (stereo in doubt; 36-(A)) | 0.57 |  |  |
| C[C@@H](NC(=O)c1cc(NC(=O)CCC(O)(CCc2ccccc2)C(=O)N[C@H]2c3ccccc3C[C@H]2O)cc(N(C)S(C)(=O)=O)c1)c1ccccc1 (stereo in doubt; 37-(B)) | 0.25 | < 10 | > 5 |
| CC(C)[C@H](NC(=O)C(O)(CCC(=O)Nc1cc(C(=O)N[C@H](C)c2ccccc2)cc(N(C)S(C)(=O)=O)c1)CCc1ccccc1)C(=O)Nc1ccccc1 (stereo in doubt; 39-(A)) | 0.23 | 12 | > 5 |

The next lines start with the values.

| IC50 (Beta-secretase 1) [µM] | Papp [1] [nm/s] | Ki (Cathepsin D) [µM] | Structure (SMILES) |
| --- | --- | --- | --- |
| > 10 |  |  | CC(C)[C@H](NC(=O)CCC(O)(CCc1ccccc1)C(=O)Nc1cc(C(=O)N[C@H](C)c2ccc(F)cc2)cc(N(C)S(C)(=O)=O)c1)C(=O)NCc1ccccc1 (some centres undefined) |
| > 10 |  |  | CC(C)[C@H](NC(=O)CCC(O)(Cc1ccccc1)C(=O)Nc1cc(C(=O)N[C@H](C)c2ccc(F)cc2)cc(N(C)S(C)(=O)=O)c1)C(=O)NCc1ccc(C(=O)O)cc1 (some centres undefined) |
| > 10 |  |  | CC(C)[C@H](NC(=O)CCC(O)(Cc1ccccc1)C(=O)Nc1cc(C(=O)N[C@H](C)c2ccc(F)cc2)cc(N(C)S(C)(=O)=O)c1)C(=O)Nc1ccc(C(=O)O)cc1 (some centres undefined) |
| 5.9 |  |  | CC(C)[C@H](NC(=O)CCC(O)(Cc1ccccc1)C(=O)Nc1cc(C(=O)N[C@H](C)c2ccc(F)cc2)cc(N(C)S(C)(=O)=O)c1)C(=O)NCc1ccccc1 (some centres undefined) |
| 4 |  |  | COC(=O)c1ccc(NC(=O)[C@@H](NC(=O)CCC(O)(Cc2ccccc2)C(=O)Nc2cc(C(=O)N[C@H](C)c3ccc(F)cc3)cc(N(C)S(C)(=O)=O)c2)C(C)C)cc1 (some centres undefined) |
| > 10 |  |  | COC(=O)c1ccc(CNC(=O)[C@@H](NC(=O)CCC(O)(Cc2ccccc2)C(=O)Nc2cc(C(=O)N[C@H](C)c3ccc(F)cc3)cc(N(C)S(C)(=O)=O)c2)C(C)C)cc1 (some centres undefined) |
